Columns and labels:
Assay in all cases: relative viability (nuclei count vs DMSO), 5 days (fraction); higher = more cells survive
ChaGo-K-1 = tested on: ChaGo-K-1
Outline: (§1)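 Lung cancer cell lines in 1536-well plates got either a single drug or a fixed anchor-drug dose together with five library-drug doses (not always all listed) in √10 steps, by pin tool, on the day after seeding. Nuclei were counted after 5 days, and relative viability is the treated-to-vehicle ratio of nuclei counts. Values are medians of duplicate plates.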

A-427 = tested on: A-427
Outline: as §1

CAL-12T = tested on: CAL-12T
Outline: as §1

NCI-H2009 = tested on: NCI-H2009
Outline: as §1

NCI-H1395 = tested on: NCI-H1395
Outline: as §1

SK-MES-1 = tested on: SK-MES-1
Outline: as §1

LCLC-103H = tested on: LCLC-103H
Outline: as §1

NCI-H441 = tested on: NCI-H441
Outline: as §1

LU99A = tested on: LU99A
Outline: as §1

EPLC-272H = tested on: EPLC-272H
Outline: as §1

NCI-H1975 = tested on: NCI-H1975
Outline: as §1

NCI-H727 = tested on: NCI-H727
Outline: as §1

NCI-H1793 = tested on: NCI-H1793
Outline: as §1

NCI-H460 = tested on: NCI-H460
Outline: as §1

NCI-H650 = tested on: NCI-H650
Outline: as §1

BEN = tested on: BEN
Outline: as §1

LXF-289 = tested on: LXF-289
Outline: as §1

NCI-H2342 = tested on: NCI-H2342
Outline: as §1

COR-L 105 = tested on: COR-L 105
Outline: as §1

NCI-H2347 = tested on: NCI-H2347
Outline: as §1

NCI-H358 = tested on: NCI-H358
Outline: as §1

NCI-H1650 = tested on: NCI-H1650
Outline: as §1

HOP-62 = tested on: HOP-62
Outline: as §1

NCI-H1993 = tested on: NCI-H1993
Outline: as §1

NCI-H1666 = tested on: NCI-H1666
Outline: as §1

Nc1cccc2c1CN(C1CCC(=O)NC1=O)C2=O (stereo unspecified) [Lenalidomide] + Cc1cc(Nc2cc(N3CCN(C)CC3)nc(Sc3ccc(NC(=O)C4CC4)cc3)n2)n[nH]1 [Tozasertib] (partner 0.1 µM) showed a relative viability (ChaGo-K-1; first compound 0.253 µM) of 0.242, a relative viability (ChaGo-K-1; first compound 0.8 µM) of 0.228 and a relative viability (ChaGo-K-1; first compound 2.53 µM) of 0.249. The relative viability (ChaGo-K-1; first compound 8 µM) was 0.231, the relative viability (A-427; first compound 0.253 µM) was 0.197 and the relative viability (A-427; first compound 0.8 µM) was 0.222. It also gave a relative viability (A-427; first compound 2.53 µM) of 0.22, a relative viability (A-427; first compound 8 µM) of 0.216 and a relative viability (CAL-12T; first compound 0.253 µM) of 0.3. The relative viability (CAL-12T; first compound 0.8 µM) was 0.302, the relative viability (CAL-12T; first compound 2.53 µM) was 0.463 and the relative viability (CAL-12T; first compound 8 µM) was 0.352. For the same compound, the relative viability (NCI-H2009; first compound 0.253 µM) was 0.776, the relative viability (NCI-H2009; first compound 0.8 µM) was 0.761 and the relative viability (NCI-H2009; first compound 2.53 µM) was 0.836. It also gave a relative viability (NCI-H2009; first compound 8 µM) of 0.847, a relative viability (NCI-H1395; first compound 0.253 µM) of 0.692 and a relative viability (NCI-H1395; first compound 0.8 µM) of 0.753. The relative viability (NCI-H1395; first compound 2.53 µM) was 0.818, the relative viability (NCI-H1395; first compound 8 µM) was 0.678 and the relative viability (SK-MES-1; first compound 0.253 µM) was 0.865. It also gave a relative viability (SK-MES-1; first compound 0.8 µM) of 0.802, a relative viability (SK-MES-1; first compound 2.53 µM) of 0.913 and a relative viability (SK-MES-1; first compound 8 µM) of 0.98. The relative viability (LCLC-103H; first compound 0.253 µM) was 0.47, the relative viability (LCLC-103H; first compound 0.8 µM) was 0.517 and the relative viability (LCLC-103H; first compound 2.53 µM) was 0.644. The relative viability (LCLC-103H; first compound 8 µM) was 0.566, the relative viability (NCI-H441; first compound 0.253 µM) was 0.72 and the relative viability (NCI-H441; first compound 0.8 µM) was 0.572. The relative viability (NCI-H441; first compound 2.53 µM) was 0.621, the relative viability (NCI-H441; first compound 8 µM) was 0.522 and the relative viability (LU99A; first compound 0.253 µM) was 0.32. The relative viability (LU99A; first compound 0.8 µM) was 0.284, the relative viability (LU99A; first compound 2.53 µM) was 0.29 and the relative viability (LU99A; first compound 8 µM) was 0.276. The relative viability (EPLC-272H; first compound 0.253 µM) was 0.343, the relative viability (EPLC-272H; first compound 0.8 µM) was 0.229 and the relative viability (EPLC-272H; first compound 2.53 µM) was 0.349. The relative viability (EPLC-272H; first compound 8 µM) was 0.256, the relative viability (NCI-H1975; first compound 0.253 µM) was 0.886 and the relative viability (NCI-H1975; first compound 0.8 µM) was 0.755. For the same compound, the relative viability (NCI-H1975; first compound 2.53 µM) was 0.844, the relative viability (NCI-H1975; first compound 8 µM) was 0.849 and the relative viability (NCI-H727; first compound 0.253 µM) was 0.615. It also gave a relative viability (NCI-H727; first compound 0.8 µM) of 0.585, a relative viability (NCI-H727; first compound 2.53 µM) of 0.56 and a relative viability (NCI-H727; first compound 8 µM) of 0.756. It also gave a relative viability (NCI-H1793; first compound 0.253 µM) of 0.356, a relative viability (NCI-H1793; first compound 2.53 µM) of 0.383 and a relative viability (NCI-H1793; first compound 8 µM) of 0.349. It also gave a relative viability (NCI-H460; first compound 0.253 µM) of 0.393, a relative viability (NCI-H460; first compound 0.8 µM) of 0.396 and a relative viability (NCI-H460; first compound 2.53 µM) of 0.49. The relative viability (NCI-H460; first compound 8 µM) was 0.587, the relative viability (NCI-H650; first compound 0.253 µM) was 0.795 and the relative viability (NCI-H650; first compound 2.53 µM) was 0.869. The relative viability (NCI-H650; first compound 8 µM) was 0.714, the relative viability (BEN; first compound 0.253 µM) was 0.594 and the relative viability (BEN; first compound 0.8 µM) was 0.462. The relative viability (BEN; first compound 2.53 µM) was 0.441, the relative viability (BEN; first compound 8 µM) was 0.57 and the relative viability (LXF-289; first compound 0.253 µM) was 0.206. For the same compound, the relative viability (LXF-289; first compound 0.8 µM) was 0.191, the relative viability (LXF-289; first compound 2.53 µM) was 0.25 and the relative viability (LXF-289; first compound 8 µM) was 0.229. It also gave a relative viability (NCI-H2342; first compound 0.253 µM) of 0.504, a relative viability (NCI-H2342; first compound 0.8 µM) of 0.49 and a relative viability (NCI-H2342; first compound 2.53 µM) of 0.649. It also gave a relative viability (NCI-H2342; first compound 8 µM) of 0.441, a relative viability (COR-L 105; first compound 0.253 µM) of 0.351 and a relative viability (COR-L 105; first compound 0.8 µM) of 0.31. For the same compound, the relative viability (COR-L 105; first compound 2.53 µM) was 0.402, the relative viability (COR-L 105; first compound 8 µM) was 0.373 and the relative viability (NCI-H2347; first compound 0.253 µM) was 0.633. The relative viability (NCI-H2347; first compound 0.8 µM) was 0.414, the relative viability (NCI-H2347; first compound 2.53 µM) was 0.643 and the relative viability (NCI-H2347; first compound 8 µM) was 0.599. For the same compound, the relative viability (NCI-H358; first compound 0.253 µM) was 0.12, the relative viability (NCI-H358; first compound 0.8 µM) was 0.107 and the relative viability (NCI-H358; first compound 2.53 µM) was 0.103. It also gave a relative viability (NCI-H358; first compound 8 µM) of 0.0989, a relative viability (NCI-H1650; first compound 0.8 µM) of 0.58 and a relative viability (NCI-H1650; first compound 2.53 µM) of 0.563. For the same compound, the relative viability (NCI-H1650; first compound 8 µM) was 0.592, the relative viability (HOP-62; first compound 0.253 µM) was 0.359 and the relative viability (HOP-62; first compound 0.8 µM) was 0.41. For the same compound, the relative viability (HOP-62; first compound 2.53 µM) was 0.352, the relative viability (HOP-62; first compound 8 µM) was 0.405 and the relative viability (NCI-H1993; first compound 0.253 µM) was 0.529. For the same compound, the relative viability (NCI-H1993; first compound 0.8 µM) was 0.572, the relative viability (NCI-H1993; first compound 2.53 µM) was 0.618 and the relative viability (NCI-H1993; first compound 8 µM) was 0.524. For the same compound, the relative viability (NCI-H1666; first compound 0.253 µM) was 0.585, the relative viability (NCI-H1666; first compound 2.53 µM) was 0.655 and the relative viability (NCI-H1666; first compound 8 µM) was 0.653.

Source: the supplement of paper PMC10307832
